Experimental data published in patent US11752149B2, “Muscarinic acetylcholine M1 receptor antagonists” (Pipeline Therapeutics, Inc., priority 2019, dated 2023).

Target: human M1 receptor (Homo sapiens (Human), UniProt P11229)
Test: In vitro functional assay of muscarinic acetylcholine receptor activity, aequorin calcium flux, reversal of EC80 acetylcholine
Format: cell-based
Conditions: not given
Experimental: CHO-K1 cells stably expressing human M1 receptor with aequorin (Perkin Elmer) were grown in F12 media (Gibco) containing 10% FBS (ATCC), 0.4 mg/mL geneticin (Sigma-Aldrich) and 0.25 mg/mL Zeocin (Invitrogen). Cells were grown as per the manufacturer's protocol. For compound testing, cells were grown to confluency and detached gently with Accutase (Sigma-Aldrich) followed by centrifugation for 5 min at 150×g. Cells were then re-suspended in assay buffer (i.e. DMEM/F-12 HEPES without phenol red (Invitrogen) with 0.1% BSA (Sigma-Aldrich)) at a density of 5×10^6 cells/ml. Under sterile conditions, 5 μM coelenterazine (Invitrogen) was added to the cells, mixed, then incubated at room temperature protected from light, with gentle agitation, for 4 h.
Primary compound plates were prepared in 100% DMSO in opaque 96-well plates (VWR) and serially diluted in half log increments. Secondary compound plates were prepared at 3× concentration in assay buffer. Compounds were added to white, clear bottom tissue culture treated 96-well plates (Fisher Scientific). Coelenterazine-loaded cells were then added at 5×10^5 cells/well.
Compounds and cells were incubated at room temperature for 30 min in the dark. Acetylcholine at the EC80 concentration was added and calcium flux measured using a FlexStation 3 (Molecular Devices). Sigmoidal dose-response curves were generated by measuring luminescence over 40 sec and calculating the area under the curve. Dose response curves and IC50 values were generated using Prism (GraphPad). Compounds were tested at a final concentration range of 100 pM to 10 μM in 0.1% DMSO.

Sequence of human M1 receptor (P11229 whole entry): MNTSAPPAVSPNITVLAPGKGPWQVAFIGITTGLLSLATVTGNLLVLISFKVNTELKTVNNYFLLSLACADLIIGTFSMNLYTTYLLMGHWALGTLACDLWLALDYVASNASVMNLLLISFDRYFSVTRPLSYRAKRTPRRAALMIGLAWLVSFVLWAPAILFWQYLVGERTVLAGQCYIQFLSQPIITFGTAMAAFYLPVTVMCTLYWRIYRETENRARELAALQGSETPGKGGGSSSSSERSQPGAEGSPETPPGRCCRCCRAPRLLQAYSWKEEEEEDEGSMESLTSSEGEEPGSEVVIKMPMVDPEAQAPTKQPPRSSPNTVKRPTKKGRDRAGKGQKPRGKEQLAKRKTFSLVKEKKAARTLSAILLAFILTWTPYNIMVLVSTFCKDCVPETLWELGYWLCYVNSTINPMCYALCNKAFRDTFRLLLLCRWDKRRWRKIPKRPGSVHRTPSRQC

| SMILES | IC50 |
| --- | --- |
| N#Cc1ccc(N2C3CCC2CN(C(=O)CCS(=O)(=O)c2ccccc2C2CC2(F)F)C3)nc1 (racemic) [Example 5, 6-(3-(3-((2-(2,2-difluorocyclopropyl)phenyl)-sulfonyl)-propanoyl)-3,8-diazabicyclo[3.2.1]octan-8-yl)nicotinonitrile] | 10 to 100 nM |
| N#Cc1ccc(N2C3CCC2CN(C(=O)CCS(=O)(=O)c2ccccc2[C@@H]2CC2(F)F)C3)nc1 (single isomer, unassigned) [Example 36] | 100 to 1000 nM |
| N#Cc1ccc(N2C3CCC2CN(C(=O)CCS(=O)(=O)c2cccc(F)c2)C3)nc1 [Example 7, 6-{3-[3-(3-fluorobenzenesulfonyl)propanoyl]-3,8-diazabicyclo[3.2.1]octan-8-yl}pyridine-3-carbonitrile] | 10 to 100 nM |
| N#Cc1ccc(N2C3CCC2CN(C(=O)CCS(=O)(=O)c2cc(F)cc(F)c2)C3)nc1 [Example 8, 6-{3-[3-(3,5-difluorobenzenesulfonyl)propanoyl]-3,8-diazabicyclo [3.2.1]octan-8-yl}pyridine-3-carbonitrile] | 10 to 100 nM |
| COc1cccc(S(=O)(=O)CCC(=O)N2CC3CCC(C2)N3c2ccc(C)nn2)c1 [Example 9, 3-(3-methoxybenzenesulfonyl)-1-[8-(6-methylpyridazin-3-yl)-3,8-diazabicyclo[3.2.1]octan-3-yl]propan-1-one] | 100 to 1000 nM |
| COc1cc(F)cc(S(=O)(=O)CCC(=O)N2CC3CCC(C2)N3c2ccc(C#N)cn2)c1 [Example 11, 6-{3-[3-(3-fluoro-5-methoxybenzenesulfonyl)propanoyl]-3,8-diazabicyclo [3.2.1]octan-8-yl}pyridine-3-carbonitrile] | 10 to 100 nM |
| COc1ccccc1S(=O)(=O)CCC(=O)N1CC2CCC(C1)N2c1ccc(C#N)cn1 [Example 12, 6-{3-[3-(2-methoxybenzenesulfonyl)propanoyl]-3,8-diazabicyclo [3.2.1]octan-8-yl}pyridine-3-carbonitrile] | 10 to 100 nM |
| COc1ccc(F)cc1S(=O)(=O)CCC(=O)N1CC2CCC(C1)N2c1ccc(C#N)cn1 [Example 13, 6-{3-[3-(5-fluoro-2-methoxybenzenesulfonyl)propanoyl]-3,8-diazabicyclo [3.2.1]octan-8-yl}pyridine-3-carbonitrile] | 10 to 100 nM |
| COc1c(F)cccc1S(=O)(=O)CCC(=O)N1CC2CCC(C1)N2c1ccc(C#N)cn1 [Example 14, 6-{3-[3-(3-fluoro-2-methoxybenzenesulfonyl)propanoyl]-3,8-diazabicyclo [3.2.1]octan-8-yl}pyridine-3-carbonitrile] | 10 to 100 nM |
| COc1cc(S(=O)(=O)CCC(=O)N2CC3CCC(C2)N3c2ccc(C#N)cn2)ccn1 [Example 15, 6-(3-{3-[(2-methoxypyridin-4-yl)sulfonyl]propanoyl}-3,8-diazabicyclo[3.2.1]octan-8-yl)pyridine-3-carbonitrile] | 10 to 100 nM |
| COc1cccc(S(=O)(=O)CCC(=O)N2CC3CCC(C2)N3c2ccc(C(F)(F)F)cn2)c1 [Example 16, 3-(3-methoxybenzenesulfonyl)-1-{8-[5-(trifluoromethyl)pyridin-2-yl]-3,8-diazabicyclo[3.2.1]octan-3-yl}propan-1-one] | 100 to 1000 nM |
| COc1cccc(S(=O)(=O)CCC(=O)N2CC3CCC(C2)N3c2ccc(C(F)(F)F)nn2)c1 [Example 17, 3-(3-methoxybenzenesulfonyl)-1-{8-[6-(trifluoromethyl)pyridazin-3-yl]-3,8-diazabicyclo[3.2.1]octan-3-yl}propan-1-one] | 100 to 1000 nM |
| COc1cccc(S(=O)(=O)CCC(=O)N2CC3CCC(C2)N3c2ccc(F)c(C#N)c2)c1 [Example 19, 2-fluoro-5-{3-[3-(3-methoxybenzenesulfonyl)propanoyl]-3,8-diazabicyclo [3.2.1]octan-8-yl}benzonitrile] | 100 to 1000 nM |
| COc1cccc(S(=O)(=O)CCC(=O)N2CC3CCC(C2)N3c2ccc(C#N)c(F)c2)c1 [Example 20, 2-fluoro-4-{3-[3-(3-methoxybenzenesulfonyl)propanoyl]-3,8-diazabicyclo [3.2.1]octan-8-yl}benzonitrile] | 10 to 100 nM |
| N#Cc1ccc(N2C3CCC2CN(C(=O)CCS(=O)(=O)c2cccc(OC4CC4)c2)C3)nc1 [Example 21, 6-{3-[3-(3-cyclopropoxybenzenesulfonyl)propanoyl]-3,8-diazabicyclo [3.2.1]octan-8-yl}pyridine-3-carbonitrile] | 100 to 1000 nM |
| N#Cc1ccc(N2C3CCC2CN(C(=O)CCS(=O)(=O)c2cccc(Br)c2)C3)nc1 [Example 22, 6-{3-[3-(3-bromobenzenesulfonyl)propanoyl]-3,8-diazabicyclo [3.2.1]octan-8-yl}pyridine-3-carbonitrile] | 100 to 1000 nM |
| N#Cc1ccc(N2C3CCC2CN(C(=O)CCS(=O)(=O)c2ncccc2C2CC2)C3)nc1 [Example 23, 6-(3-{3-[(3-cyclopropylpyridin-2-yl)sulfonyl]propanoyl}-3,8-diazabicyclo[3.2.1]octan-8-yl)pyridine-3-carbonitrile] | 100 to 1000 nM |
| N#Cc1ccc(N2C3CCC2CN(C(=O)CCS(=O)(=O)c2ccnc(C4CC4)c2)C3)nc1 [Example 25, 6-(3-{3-[(2-cyclopropyl-pyridin-4-yl)sulfonyl]propanoyl}-3,8-diazabicyclo [3.2.1]octan-8-yl)pyridine-3-carbonitrile] | 100 to 1000 nM |
| N#Cc1ccc(N2C3CCC2CN(C(=O)CCS(=O)(=O)c2ccccc2C(F)F)C3)nc1 [Example 26, 6-(3-{3-[2-(difluoromethyl)benzene-sulfonyl]propanoyl}-3,8-diazabicyclo-[3.2.1]octan-8-yl)pyridine-3-carbonitrile] | 100 to 1000 nM |
| N#Cc1ccc(N2C3CCC2CN(C(=O)CCS(=O)(=O)c2cccnc2C2CC2)C3)nc1 [Example 27, 6-(3-{3-[(2-cyclopropylpyridin-3-yl)sulfonyl]propanoyl}-3,8-diazabicyclo[3.2.1]octan-8-yl)pyridine-3-carbonitrile] | 10 to 100 nM |
| N#Cc1ccc(N2C3CCC2CN(C(=O)CCS(=O)(=O)c2ccccc2Br)C3)nc1 [Example 28, 6-(3-(3-((2-bromophenyl)sulfonyl)propanoyl)-3,8-diazabicyclo [3.2.1]octan-8-yl)nicotinonitrile] | 100 to 1000 nM |
| N#Cc1ccc(N2C3CCC2CN(C(=O)CCS(=O)(=O)c2ccccc2C(F)(F)F)C3)nc1 [Example 29, 6-(3-(3-((2-(trifluoromethyl)phenyl)sulfonyl)propanoyl)-3,8-diazabicyclo[3.2.1]octan-8-yl)nicotinonitrile] | 100 to 1000 nM |
| N#Cc1ccc(N2C3CCC2CN(C(=O)CCS(=O)(=O)c2ccccc2OC(F)(F)F)C3)nc1 [Example 30, 6-(3-(3-((2-(trifluoromethoxy)phenyl)sulfonyl)propanoyl)-3,8-diazabicyclo-[3.2.1]octan-8-yl)nicotinonitrile] | 100 to 1000 nM |
| CC(F)(F)c1ccccc1S(=O)(=O)CCC(=O)N1CC2CCC(C1)N2c1ccc(C#N)cn1 [Example 31, 6-(3-(3-((2-(1,1-difluoroethyl)phenyl)sulfonyl)propanoyl)-3,8-diazabicyclo [3.2.1]octan-8-yl)nicotinonitrile] | 100 to 1000 nM |
| Cc1ccc(F)cc1S(=O)(=O)CCC(=O)N1CC2CCC(C1)N2c1ccc(C#N)cn1 [Example 32, 6-(3-(3-((5-fluoro-2-methylphenyl)sulfonyl)propanoyl)-3,8-diazabicyclo [3.2.1]octan-8-yl)nicotinonitrile] | 100 to 1000 nM |
| Cc1cc(F)cc(S(=O)(=O)CCC(=O)N2CC3CCC(C2)N3c2ccc(C#N)cn2)c1 [Example 33, 6-(3-(3-((3-fluoro-5-methylphenyl)sulfonyl)propanoyl)-3,8-diazabicyclo [3.2.1]octan-8-yl)nicotinonitrile] | 100 to 1000 nM |

Same assay, conditions: CHO-K1 cells expressing human M1 receptor with aequorin; acetylcholine at EC80; read-out: M1 IC50

| SMILES | IC50 |
| --- | --- |
| N#Cc1ccc(N2C3CCC2CN(C(=O)CCCS(=O)(=O)c2ccccc2I)C3)nc1 [Example 1, 6-(3-(4-((2-iodophenyl)sulfonyl)butanoyl)-3,8-diazabicyclo[3.2.1]octan-8-yl)nicotinonitrile] | < 10 nM |
| N#Cc1ccc(N2C3CCC2CN(C(=O)CCS(=O)(=O)c2cccc(F)c2C2CC2)C3)nc1 [Example 4, 6-(3-(3-((2-cyclopropyl-3-fluorophenyl)sulfonyl)-propanoyl)-3,8-diazabicyclo[3.2.1]octan-8-yl)nicotinonitrile] | < 10 nM |
| CC(C)(O)c1cc(S(=O)(=O)CCC(=O)N2CC3CCC(C2)N3c2ccc(C#N)cn2)ccc1F [Example 6, 6-(3-(3-((4-fluoro-3-(2-hydroxypropan-2-yl)phenyl)-sulfonyl)propanoyl)-3,8-diazabicyclo[3.2.1]octan-8-yl)nicotinonitrile] | 1000 to 10000 nM |
| COc1cccc(S(=O)(=O)CCC(=O)N2CC3CCC(C2)N3c2ccc(C)nc2)c1 [Example 10, 3-(3-methoxybenzenesulfonyl)-1-[8-(6-methylpyridin-3-yl)-3,8-diazabicyclo[3.2.1]octan-3-yl]propan-1-one] | 1000 to 10000 nM |
| COc1cccc(S(=O)(=O)CCC(=O)N2CC3CCC(C2)N3c2ccc(C)cn2)c1 [Example 18, 3-(3-methoxybenzenesulfonyl)-1-[8-(5-methylpyridin-2-yl)-3,8-diazabicyclo[3.2.1]octan-3-yl]propan-1-one] | 1000 to 10000 nM |
